The values below come from patent publication US4002738A, “Treatment of specified neoplasias” (Abbott Laboratories, priority 1975, dated 1977).

The subject of assay [1] is spontaneous growth in the right lateral mammary region (adenocarcinoma of the mammary gland). Description: Spontaneous mammary tumor in a female rat, subcutaneous treatment. It is filed as in vivo. On the procedure: A female rat that had developed a spontaneous growth in the right lateral mammary region was given b.i.d. 10 μg. of the compound of formula I (R'= isobutyl; R = ethyl). […] On day 9, a biopsy was performed and the tumor was identified as adenocarcinoma of the mammary gland. Treatment was stopped after 20 days and the animal was observed periodically. Tumor growth reappeared in the same area with rapid growth observed on day 65 (counted from original treatment beginning). […] Treatment with the above regimen was started again. The tumor regressed again and on day 93, its diameter was 1.2 cm. and its depth was 0.4 cm. […] However, the tumor remained dormant until day 147 (54 days following the last treatment), when significant growing resumed.

Assay [2] relates to tumors induced by 7,12-dimethylbenzanthracene (DMBA). As to the kind of experiment: DMBA-induced tumors in female rats, subcutaneous treatment. It is filed as in vivo, rat. The procedure: In a group of 3 female, 50-day old rats, tumors were induced by intragastric feeding of 20 mg of 7,12-dimethylbenzanthracene (DMBA) in 2 ml. of sesame oil. The animals developed tumors within 10-12 weeks. All animals were maintained on normal rations for 100 days following the DMBA administration, at which time treatment with the compound of formula I (R = ethyl; R' = isobutyl) was started at a b.i.d. regimen Monday through Friday with a single dose on Saturday, the compound being subcutaneously administered as a 0.2% (wt/vol.) solution in isotonic saline.
The first animal carrying 4 tumors of volumes of 5.5, 3, 1 and 1 cc. respectively, was given the above regimen with 10 μg per dose.
In the second animal carrying 3 tumors, each dose contained only 5 μg of the drug.
The third animal had developed 5 tumors, measuring 6.5, 3.5, 1.5, 0.5 and 0.5 cc. respectively. After treatment with 2.5 μg. per dose of the test drug, these tumors were reduced to 1.5, 3.0, 0.5, 0.2 and >0.0 cc. in that sequence.

The mark [3] stands for this setting: day 66, regrowth after treatment was stopped on day 20, before second treatment.

On to `CCNC(=O)[C@@H]1CCCN1C(=O)[C@H](CCCNC(=N)N)NC(=O)[C@H](CC(C)C)NC(=O)[C@@H](CC(C)C)NC(=O)[C@H](Cc1ccc(O)cc1)NC(=O)[C@H](CO)NC(=O)[C@H](Cc1c[nH]c2ccccc12)NC(=O)[C@H](Cc1c[nH]cn1)NC(=O)[C@@H]1CCC(=O)N1`, for which the “day until which the tumor remained dormant before significant growing resumed” value in assay [1] (counted from original treatment beginning, 54 days following the last treatment) worked out at 147 days. Besides, the tumor diameter in assay [1] (day 5 of treatment, 10 μg b.i.d. subcutaneous, diameter before treatment 3 cm) was 2 cm; in assay [1] (day 9 of treatment, 10 μg b.i.d. subcutaneous, diameter before treatment 3 cm) it was 0.5 cm; in assay [1] (day 20 of treatment, 10 μg b.i.d. subcutaneous, diameter before treatment 3 cm), “undetectable size”; in assay [1] (setting [3]) it was 4 cm; in assay [1] (day 93, second treatment started day 66 (diameter then 4 cm), 10 μg b.i.d. subcutaneous), 1.2 cm. In addition, the tumor depth in assay [1] (setting [3]) amounted to 2 cm; in assay [1] (day 93, second treatment started day 66 (depth then 2 cm), 10 μg b.i.d. subcutaneous), 0.4 cm. In addition, the tumor volume entry in assay [2] (first animal, 4 tumors of 5.5, 3, 1 and 1 cc, 10 μg per dose, after 2 weeks, the other two tumors) is given as “immeasurable volumes”; in assay [2] (first animal, 4 tumors of 5.5, 3, 1 and 1 cc, 10 μg per dose, after 2 weeks, two of the tumors), 1 cc; in assay [2] (second animal, 5 μg per dose, tumor of 3 cc before treatment), 11/4; in assay [2] (second animal, 5 μg per dose, tumor of 4 cc before treatment), 2 cc; in assay [2] (third animal, 2.5 μg per dose, first tumor of 0.5 cc before treatment) it was 0.2 cc; in assay [2] (third animal, 2.5 μg per dose, second tumor of 0.5 cc before treatment) it was more than 0.0 cc. For the same compound, the tumor volume in assay [2] (third animal, 2.5 μg per dose, tumor of 1.5 cc before treatment) is listed as 0.5 cc; in assay [2] (third animal, 2.5 μg per dose, tumor of 3.5 cc before treatment) it was 3.0 cc; in assay [2] (third animal, 2.5 μg per dose, tumor of 6.5 cc before treatment), 1.5 cc. Further, the effect on tumor entry in assay [2] (second animal, 3 tumors, 5 μg per dose, one tumor) is listed as “seemingly unaffected”.
